From US20130297023A1, “Methods and Devices For Treating Intervertebral Disc Disease” (priority 2012, published 2013) come the findings set out here.

The test system of one assay is mouse lumbar spine discs. The assay can be described thus: Ex vivo intradiscal injection organ culture model, Safranin O-fast green histology for PG loss. The conditions noted are these: intradiscal injection 150 μM per disc, IL-1 100 ng/mL, 6 days organ culture. The procedure:
Lumbar spine segments from deceased mice were dissected under sterile conditions within 12 hrs after sacrifice at the Rush University animal facility for ex vivo organ culture, as previously described (Chiba et al., 1998). The requirement for the pre-treatment of MyD88 has been previously described (Ahmad et al., 2007). Therefore, intradiscal pre-injection of MyD88i ([…]) en bloc was performed using a 30-gauge needle (30 G, 1.50 μL volume). Injected discs were then separated and incubated in DMEM/Ham's F-12 medium supplemented with 1% mini-ITS. After 24 hrs, the MyD88i pre-injected discs were challenged with either IL-1 (100 ng/mL) or LPS (10 μg/mL) and further incubated for 6 days. Harvested discs were fixed in 4% paraformaldehyde and then decalcified in EDTA, which was changed every 5 days. The decalcified discs were paraffin embedded. Serial disc sections of exactly 5-μm thickness were obtained to prepare slides. Safranin O-fast green staining was performed to assess general morphology and the loss of PG in disc ground substance.
Harvested discs were fixed in 4% paraformaldehyde and decalcified in EDTA, which was changed every 5 days. The decalcified discs were paraffin embedded. Serial disc sections of exactly 5-μm thickness were obtained to prepare slides. […]

Assay [1] deals with human NP cells. The assay can be described thus: Real-time qPCR and western blotting of LPS- or IL-1-induced MMP-13, MMP-1, ADAMTS-4 and iNOS in human NP cell monolayers. As to conditions: co-treatment MyD88i 100 μM, 24 hr. Format: cell-based. The protocol: (§1) Human spine segments (T11/12 to S1) were received within 24 hours of death of donors from the Gift of Hope Organ and Tissue Donor Network (Elmhurst, Ill.), after obtaining consent from the families. Each of the lumbar segments underwent magnetic resonance imaging (MRI). Intact disc specimens (Thompsons grade 2 or 3) were removed and processed aseptically (Thompson et al., 1990; Kim et al., 2009). After dissection of the NP portion of discs either from human or bovine tails, NP cells were released by enzymatic digestion in Dulbecco's modified Eagle's medium [(DMEM)/Ham's F-12 (1:1)] culture medium with sequential treatments of 0.2% pronase and 0.025% collagenase P, as previously described (Kim et al.; Loeser et al., 2003). Alginate beads and monolayers were prepared for long-term (21 days) and short-term studies (1-2 days) as previously described by our group (Kim et al.; Im et al., 2003; Im et al., 2007b; Im et al., 2008; Li et al., 2008a).
(§2) For short-term monolayer cultures, isolated NP cells from either bovine tails or human spine discs were counted and plated onto 12-well plates at 8×10^5 cells/cm^2 as previously described (Im et al., 2003; Im et al., 2007b). Cells were stimulated with either IL-1 (10 ng/mL, NCI) or LPS (10 μg/mL, Sigma-Aldrich, St. Louis, Mont.) in the presence or absence of MyD88 peptide inhibitor (MyD88i; IMGENEX, San Diego, Calif.) at the concentration of 100 μM, in 1 mL per well of serum-free medium for 24 hours at 37° C. under 5% CO2. Supernatants were collected 24 hours after the initiation of each treatment and subjected to western blotting analyses for secreted matrix-degrading enzyme production. Cells were harvested and prepared for either cell lysates or total RNA extraction followed by real-time qPCR analyses, as previously described (Li et al., 2008b). 18s rRNA was used for normalization.
(§3) Total RNA was isolated from the cells using Trizol reagent (Invitrogen, Carlsbad, Calif.) following the instructions provided by the manufacturer. Reverse transcription was carried out with 1 μg total RNA using the ThermoScript™ RT-PCR system (Invitrogen, Carlsbad, Calif.) for first strand cDNA synthesis.
(§4) For real-time qPCR, cDNA was amplified using MyiQ Real-Time qPCR Detection System (Bio-Rad Hercules, Calif.). The synthesized cDNA was subjected to real-time qPCR utilizing the Bio-Rad iQTM SYBR Green supermix (Bio-Rad Hercules, Calif.). A threshold cycle (Ct value) was obtained from each amplification curve using iQ5 Optical System Software provided by the manufacturer (Bio-Rad Hercules, CA). Relative mRNA expression was determined using the ^ΔΔCT and calculated as follows: ^ΔΔCT=^ΔCT (gene of interest)−^ΔCT (endogenous control). Gene quantification was conducted for entire, individual treatment groups and expressed in terms of fold change from untreated control levels. Expression of 18s rRNA was used as the internal control. The deviations in samples represent 3 different donors in 3 separate experiments.
Cell and tissue lysates were prepared using modified RIPA buffer, as previously described (Li et al., 2008a; Li et al., 2008c). The total protein concentrations of cell lysates were determined by a bicinchoninic acid protein assay (Pierce, Rockford, Ill., USA). An equal amount of protein was resolved by 10% SDS-polyacrylamide gels (SDS-PAGE) and transferred to a nitrocellulose membrane for immunoblot analyses, as described previously (Im et al., 2007b). MMP-13 and MMP-1 antibodies were provided by courtesy of Dr. Gillian Murphy (Cambridge University, UK) Immunoreactivity was visualized using the ECL system (Amersham Biosciences, Piscataway, N.J., USA) and the Signal Visual Enhancer system (Pierce), which magnifies the signal.
For orientation: In qPCR the cycle at which signal appears reflects the starting amount.

The subject of assay [2] is human NP cells. The assay can be described thus: Gelatin zymography of conditioned media from LPS- or IL-1-stimulated human NP cells. Format: cell-based. As to conditions: MyD88i 100 μM, 24 hr, p<0.01. The procedure:
as §2, with “Cells were harvested and prepared for either cell lysates or total RNA extraction followed by real-time qPCR analyses, as previously described (Li et al., 2008b). 18s rRNA was used for normalization.” left out
Gelatin zymography was then performed as previously described (Gupta et al., 2007). […] After development, gel images were captured and the clear bands were analyzed using “ImageJ” image analysis software (www.imagej.nih.gov), and were expressed in arbitrary optical density units. […]
Because MyD88i effectively suppresses expression and/or production of multiple cartilage degrading enzymes, TLR-2 and stress-associated genes after stimulation with either LPS or IL-1 (FIGS. 1˜4), the role of MyD88i in antagonizing catalytic enzyme activity was further analyzed by performing reverse zymography (FIG. 5). […]

In the next assay the test system is bovine NP cells. The assay can be described thus: Real-time qPCR of LPS- or IL-1-induced catabolic genes and TLR-2 in bovine NP cell monolayers. Format: cell-based. The protocol: as §1, §2, §3, §4
Therefore, NP cells were treated with MyD88i (100 μM), LPS or IL-1, individually, or combinations of LPS and MyD88i or IL-1 and MyD88i for 24 hours. Resulting cellular responses were then analyzed for alterations in gene expression and/or secreted protein levels. Our data reveal the significant upregulation of collagenase (MMP-13) and aggrecanases (ADAMTS-4, ADAMTS-5) after stimulation with either LPS or IL-1 compared to control (untreated) in bovine NP cells (FIGS. 1A˜C).

Setting [3] is: MyD88i 100 μM, IL-1 10 ng/mL, 24 hr, qPCR, p<0.05.
The mark [4] stands for this setting: MyD88i 100 μM, LPS 10 μg/mL, 24 hr, qPCR, p<0.01.

On to DRQIKIWFQNRRMKWKKRDVLPGT [MyD88i], for which the “IL-1-induced PG loss in disc organ culture” value in the assay on mouse lumbar spine discs was “significantly attenuates”. The “IL-1-induced collagenases MMP-13 and MMP-1, mRNA and protein levels” value in the assay with human NP cells [1] (IL-1 10 ng/mL, p<0.05) is listed as “significant decreases”. Moreover, the “induction of ADAMTS-4 expression by IL-1” value in the assay on human NP cells [1] (IL-1 10 ng/mL, qPCR, p<0.05) is “significantly reduced”. In the assay with human NP cells [1] (IL-1 10 ng/mL, qPCR, p<0.05 vs IL-1 alone), the “IL-1-induced iNOS gene levels” value is “significant suppression”. In the assay on human NP cells [1] (LPS 10 μg/mL, p<0.01), the “LPS-induced collagenases MMP-13 and MMP-1, mRNA and protein levels” value was “significant decreases”. The “induction of ADAMTS-4 expression by LPS” value with human NP cells [1] (LPS 10 μg/mL, qPCR, p<0.01) is reported as “significantly reduced”. For the same sequence, the “LPS-induced iNOS gene levels” value in the assay on human NP cells [1] (LPS 10 μg/mL, qPCR, p<0.01 vs LPS alone) is listed as “significant suppression”. Also, the “IL-1-induced catalytic enzyme activity (gelatin zymography, densitometry)” value with human NP cells [2] (IL-1 10 ng/mL) is recorded as “markedly suppressed”. In addition, in the assay on human NP cells [2] (LPS 10 μg/mL), the “LPS-induced catalytic enzyme activity (gelatin zymography, densitometry)” value is listed as “markedly suppressed”. Moreover, in the assay with bovine NP cells (setting [3]), the “IL-1-induced upregulation of catabolic gene expression (MMP-13, ADAMTS-4, ADAMTS-5)” value was “significantly suppresses” and the “IL-1-stimulated TLR-2 levels” value is given as “significant decrease”. In addition, in the assay with bovine NP cells (setting [4]), the “LPS-induced upregulation of catabolic gene expression (MMP-13, ADAMTS-4, ADAMTS-5)” value is “significantly suppresses” and the “LPS-stimulated TLR-2 levels” value is on record as “significant decrease”. Besides, the “minimal dose demonstrating maximal effects” value in the assay with bovine NP cells (initial experiments, monolayer cultures, different concentrations of MyD88i) is 100 µM.
